Test system: scar formation after surgical incisions
Assay: Scar formation after surgical incisions in mice, cream applied 24 hours after surgery
Type: in vivo, Swiss-Webster mice
Conditions: rated from 0 (little or no scarring) to 4 (maximum observed scarring); cream at pH 6.5 applied 24 hours after 1.25 cm surgical incision; 15 mice
Method: This Example describes the use of a pastes prepared with the complexes of various copper peptides or copper complexes of amino acids and combinations of copper peptides or copper complexes of amino acids and salicylic acid to reduce scarring after surgery in animals.
Surgical incisions (1.25 cm) were made on the backs of anesthetized, 35 gram, Swiss-Webster mice. To allow normal scar development, there was no treatment after surgery. But 24 hours after surgery, the scars were covered with a cream containing either copper peptide alone or in combination with salicylic acid. Control wounds were untreated.
For comparison, the amount of scar formation was rated from 0 (little or no scarring) to 4 (maximum observed scarring) after seven days.
Table 1: Effect of cream at pH 6.5 with either peptide-copper complex or amino acid-copper complex or the combination of peptide copper/salicylic acid combination or amino acid copper/salicylic acid combination on scar formation

Substance: Gly-His-Lys-Copper(II)
- Scar Formation score after 7 days: 2.7 ± 0.6
